Here are results for ten molecules from patent publication US12109176B1, “Effect of glycerol on biofilm forming bacteria and fungi that changes the microbes sensitivity to pro and anti-biofilm non-toxic, non-bonded plasma amino acids and amino acid derivatives” (priority 2023, dated 2024).

Experiment [1] deals with bacterial (S. aureus) biofilm. The experiment is described as follows: Bacterial biofilm inhibition assay. Type of experiment: cell-based, Staphylococcus aureus. As for the experimental part: (§1) Two types of biofilm assays were performed: an inhibition assay and a disruption assay. The inhibition assay assesses the compound's ability to prevent biofilm development, while the disruption assay assesses the compound's ability to break up an existing mature biofilm.
(§2) All bacterial biofilm solutions were prepared in Tryptic Soy Broth (TSB), supplemented with 1% glucose (henceforth referred to as TSB-G). All subsequent procedures were performed in a manner that maintained sterility. A solution of each amino acid or an amino acid derivative to be tested was prepared in weight to volume concentrations ranging from 0.1-5.0%. Amino acids and amino acid derivatives were also tested in combinations. Compound solutions were homogenized with gentle agitation in the dark (4° C., 24 hours) before use.
(§3) 32 Amino acids and 2 amino acid derivatives of the amino acid serine that occur freely in human blood were tested. […] 31 of the 32 amino acids that were tested were the L-Isomers. Glycine has no stereoisomers. The 2 amino acid derivatives, ethanolamine and phosphoethanolamine were also tested. All biofilm assays were performed using 384-well non-tissue culture-treated polystyrene plates. The fungal species tested are as follows: Candida albicans, Candida guilliermondii, Candida parapsilosis, Candida glabrata, Candida tropicalis and Candida dubliniensis. The bacterial species tested are as follows: Staphylococci (standard wild type and methicillin-resistant strain USA300), Escherichia coli, Pseudomonas aeruginosa and Staphylococcus epidermidis.
(§4) Bacterial strains were streaked on Blood Agar plates (5% sheep blood in Tryptic Soy Broth) and incubated at 37° C. for 24 hours. A single colony from each strain to be tested was inoculated in a TSB broth and grown for 12 hours, at 37° C. with shaking (225 rpm). For the bacterial biofilm inhibition assays, 1 μL of saturated overnight cell culture was added to either 80 μL of TSB-G, or TSB-G supplemented with the amino acid compound solution to be tested, in a 384-well plate. The cells were allowed to adhere to the plate for 60 minutes at 37° C. without shaking. The media was carefully aspirated and 80 μL of TSB-G, or TSB-G supplemented with the amino acid compound solution was added to the plate. The plate was further incubated for 24 hours at 37° C. without shaking. Media was carefully aspirated and the biofilm was measured by optical density at 600 nm. Eight or twelve replicates were performed for each tested condition and the reported values are normalized to the control (TSB-G media only). For the bacterial biofilm disruption assays, 80 µL of TSB-G was added to the plate, along with 1 μL of overnight cell culture. The cells were allowed to adhere to the plate for 60 minutes at 37° C. with no shaking. The media was carefully aspirated and 80 μL of TSB-G was added to the plate. The plate was further incubated for 24 hours at 37° C. with no shaking. Media was carefully aspirated from the mature biofilm and 80 μL of TSB-G, or TSB-G supplemented with the amino acid to be tested, was gently added to the plate. The plate was further incubated for 24 hours at 37° C. without shaking. Media was aspirated and the biofilm was measured by optical density at 600 nm. Twelve replicates were performed for each tested condition and the reported values are normalized to the control (TSB-G media only).

In a further experiment the test system is bacterial biofilm. As to the kind of experiment: In vitro testing on bacterial biofilm (inhibition and/or disruption). Type of experiment: cell-based. Conditions: in vitro testing. As for the experimental part: as §1, §2, §3, §4
The test system of experiment [2] is bacterial (S. aureus) biofilm. As to the kind of experiment: Bacterial biofilm disruption assay. Type of experiment: cell-based, Staphylococcus aureus. As for the experimental part: as §1, §2, §3, §4
Experiment [3] deals with fungal biofilm (C. albicans). As to the kind of experiment: Fungal biofilm disruption assay. Type of experiment: cell-based, Candida albicans. On the procedure:
as §1, §2, §3
(§5) Fungal strains were streaked on Yeast Peptone Dextrose (YPD) agar plates and incubated at 30° C. for 48 hours. A single colony from each strain to be tested was inoculated into YPD broth and grown for 12 hours at 30° C., shaking at 225 rpm. […] The cells were allowed to adhere to the plate for 90 minutes at 37° C. with shaking (350 rpm). […] The plate was further incubated for 24 hours at 37° C. with shaking (350 rpm). Media was carefully aspirated and the biofilm was measured by optical density at 600 nm. […] The cells were allowed to adhere to the plate for 90 minutes at 37° C. with shaking (350 rpm). […] The plate was further incubated for 24 hours at 37° C. with shaking (350 rpm). […] The plate was further incubated for 24 hours at 37° C. with shaking (350 rpm). Media was carefully aspirated, and the biofilm was measured by optical density at 600 nm.

Experiment [4] has as its system bacterial (S. aureus) biofilm and fungal biofilm (C. albicans). As to the kind of experiment: Biofilm inhibition assay, bacterial and fungal taken together. The experiment is classed as cell-based. The following applies: symbol marks the assay. As for the experimental part:
as §1, §2, §3, §5
as §4, with “plate.” for “plate. The plate was further incubated for 24 hours at 37° C. without shaking. Media was aspirated and the biofilm was measured by optical density at 600 nm. Twelve replicates were performed for each tested condition and the reported values are normalized to the control (TSB-G media only).”

The subject of experiment [5] is bacterial and fungal biofilm. As to the kind of experiment: In vitro testing on bacterial and fungal biofilm (assay not told apart). The experiment is classed as cell-based. The following applies: in vitro testing. As for the experimental part: as §1, §2, §3, §5
as §4, with “plate.” for “plate. The plate was further incubated for 24 hours at 37° C. without shaking. Media was aspirated and the biofilm was measured by optical density at 600 nm. Twelve replicates were performed for each tested condition and the reported values are normalized to the control (TSB-G media only).”

[6] abbreviates: Table F, in the presence of a sufficient concentration of glycerol.
Setting [7] is: Table D, Neutral = no effect on the biofilm.
Where [8] appears, read: Table E, in the absence of an infusion of glycerol.

Entries after “also recorded” stand apart in the source; their conditions may differ.

Regarding `NC(CCCC(=O)O)C(=O)O` (stereo not drawn) [2 Aminoadipic Acid, 2-aminoadipic acid], the “Reduce or Inhibit B Biofilm (squares: Inhibition Biofilm Assay)” value in experiment [1] (Table D, 0.1 to 5.0%) was “▪ (Single square [ie. ▪] signifies little effect on the Inhibition Biofilm Assay (from about 10 to less than 30%))”; in experiment [1] (setting [6]), “▪ (Single square [ie. ▪] signifies little effect on the Inhibition Biofilm Assay (from about 10 to less than 30%))”. Also, the “effect on bacterial biofilm (in words)” value in the experiment on bacterial biofilm is given as “antibacterial biofilm effect”. Besides, the “Reduce or Inhibit B Biofilm (dots: Disruption Biofilm Assay)” value is “● (Single dot [ie. ●] signifies little effect on the Disruption Biofilm Assay (from about 10 to less than 30%))” in experiment [2] (Table D, 0.1 to 5.0%) and “● (Single dot [ie. ●] signifies little effect on the Disruption Biofilm Assay (from about 10 to less than 30%))” in experiment [2] (setting [6]).

Consider `C[C@H](N)C(=O)O` [Alanine, L-alanine], for which the “effect on bacterial biofilm (in words)” value in the experiment with bacterial biofilm is recorded as “promoted bacterial biofilm formation”. Also, in experiment [3] (Table D, 0.1 to 5.0%), the “Reduce or Inhibit F Biofilm (dots: Disruption Biofilm Assay)” value (from here on “Reduce or Inhibit F Biofilm”) is “● (Single dot [ie. ●] signifies little effect on the Disruption Biofilm Assay (from about 10 to less than 30%))”. The “Neutral (square: Inhibition Biofilm Assay)” value in experiment [4] (setting [7]), in experiment [4] (setting [8]) and in experiment [4] (setting [6]) was “▪ (Single square [ie. ▪] signifies little effect on the Inhibition Biofilm Assay (from about 10 to less than 30%))” in each case.

As to `N[C@@H](CCSC[C@H](N)C(=O)O)C(=O)O` [Cystathionine, L-cystathionine], the “effect on bacterial biofilm (in words)” value in the experiment with bacterial biofilm was “antibacterial biofilm effect”. Besides, the “Neutral (square: Inhibition Biofilm Assay)” value in experiment [4] (setting [7]), in experiment [4] (setting [8]) and in experiment [4] (setting [6]) was “▪ (Single square [ie. ▪] signifies little effect on the Inhibition Biofilm Assay (from about 10 to less than 30%))” in each case. Moreover, the “Reduce or Inhibit B Biofilm (dots: Disruption Biofilm Assay)” value in experiment [2] (Table D, 0.1 to 5.0%) is “● (Single dot [ie. ●] signifies little effect on the Disruption Biofilm Assay (from about 10 to less than 30%))”; in experiment [2] (setting [6]), “● (Single dot [ie. ●] signifies little effect on the Disruption Biofilm Assay (from about 10 to less than 30%))”.

In the case of `N[C@@H](Cc1c[nH]cn1)C(=O)O` [Histidine, L-histidine], in experiment [5], the “effect on bacterial and fungal biofilm (in words)” value was “neutral, having no effect on biofilm; also recorded: neutral”. The “Neutral (square: Inhibition Biofilm Assay)” value in experiment [4] (setting [7]), in experiment [4] (setting [8]) and in experiment [4] (setting [6]) was “▪ (Single square [ie. ▪] signifies little effect on the Inhibition Biofilm Assay (from about 10 to less than 30%))” each time.

As for `CSCC[C@H](N)C(=O)O` [Methionine, L-methionine], the “Promote B Biofilm (squares: Inhibition Biofilm Assay)” value in experiment [1] (Table D, 0.1 to 5.0%) is “▪ (Single square [ie. ▪] signifies little effect on the Inhibition Biofilm Assay (from about 10 to less than 30%))”; in experiment [1] (setting [8]), “▪ (Single square [ie. ▪] signifies little effect on the Inhibition Biofilm Assay (from about 10 to less than 30%))”. Besides, the “effect on bacterial biofilm (in words)” value in the experiment with bacterial biofilm was “promoted bacterial biofilm formation”.

Consider `N[C@@H](Cc1ccccc1)C(=O)O` [Phenylalanine, L-phenylalanine], for which the “Promote B Biofilm (squares: Inhibition Biofilm Assay)” value in experiment [1] (Table D, 0.1 to 5.0%) was “▪ (Single square [ie. ▪] signifies little effect on the Inhibition Biofilm Assay (from about 10 to less than 30%))”; in experiment [1] (setting [8]) it was “▪ (Single square [ie. ▪] signifies little effect on the Inhibition Biofilm Assay (from about 10 to less than 30%))”. Further, in the experiment with bacterial biofilm, the “effect on bacterial biofilm (in words)” value was “promoted bacterial biofilm formation”.

Consider `NCCOP(=O)(O)O` [Phospho-ethanolamine, phosphoethanolamine], for which the “Reduce or Inhibit B Biofilm (squares: Inhibition Biofilm Assay)” value in experiment [1] (Table D, 0.1 to 5.0%) is “▪ (Single square [ie. ▪] signifies little effect on the Inhibition Biofilm Assay (from about 10 to less than 30%))”; in experiment [1] (setting [6]), “▪ (Single square [ie. ▪] signifies little effect on the Inhibition Biofilm Assay (from about 10 to less than 30%))”. Further, the “effect on bacterial biofilm (in words)” value in the experiment on bacterial biofilm is “antibacterial biofilm effect”. The “Reduce or Inhibit B Biofilm (dots: Disruption Biofilm Assay)” value in experiment [2] (Table D, 0.1 to 5.0%) was “● (Single dot [ie. ●] signifies little effect on the Disruption Biofilm Assay (from about 10 to less than 30%))”; in experiment [2] (setting [6]) it was “● (Single dot [ie. ●] signifies little effect on the Disruption Biofilm Assay (from about 10 to less than 30%))”.

For the molecule `N[C@@H](CO)C(=O)O` [Serine, L-serine], the “effect on bacterial biofilm (in words)” value with bacterial biofilm is “promoted bacterial biofilm formation”. Besides, the “Reduce or Inhibit F Biofilm” value in experiment [3] (Table D, 0.1 to 5.0%) was “● (Single dot [ie. ●] signifies little effect on the Disruption Biofilm Assay (from about 10 to less than 30%))”; in experiment [3] (setting [6]), “● (Single dot [ie. ●] signifies little effect on the Disruption Biofilm Assay (from about 10 to less than 30%))”.

Turning to `N[C@@H](Cc1c[nH]c2ccccc12)C(=O)O` [Tryptophan, L-tryptophan], the “effect on bacterial biofilm (in words)” value in the experiment with bacterial biofilm is recorded as “promoted bacterial biofilm formation”. Further, the “Reduce or Inhibit F Biofilm” value in experiment [3] (Table D, 0.1 to 5.0%) was “● (Single dot [ie. ●] signifies little effect on the Disruption Biofilm Assay (from about 10 to less than 30%))”; in experiment [3] (setting [6]), “● (Single dot [ie. ●] signifies little effect on the Disruption Biofilm Assay (from about 10 to less than 30%))”.

As for `N[C@@H](Cc1ccc(O)cc1)C(=O)O` [Tyrosine, L-tyrosine], the “effect on bacterial and fungal biofilm (in words)” value was “neutral effect on biofilm” in experiment [5] and “neutral, having no effect on biofilm” in experiment [5] (listed as tyrosine).
